Data from paper PMC8862572 (Bioorganic & medicinal chemistry, 2020).
“Also recorded” adds a separate entry of the source.

Columns and labels:
[1] = biological target: T1, Recombinant human SphK2 (Homo sapiens, UniProt Q9NRA0); assay: Recombinant hSphK2 cell lysate assay; format: biochemical; settings: for SphK2 inhibition, in words: compound 0.3 μM; for inhibition at 0.3 µM: read-out: % SphK2 Inhibition
T1 sequence (Q9NRA0 1-654): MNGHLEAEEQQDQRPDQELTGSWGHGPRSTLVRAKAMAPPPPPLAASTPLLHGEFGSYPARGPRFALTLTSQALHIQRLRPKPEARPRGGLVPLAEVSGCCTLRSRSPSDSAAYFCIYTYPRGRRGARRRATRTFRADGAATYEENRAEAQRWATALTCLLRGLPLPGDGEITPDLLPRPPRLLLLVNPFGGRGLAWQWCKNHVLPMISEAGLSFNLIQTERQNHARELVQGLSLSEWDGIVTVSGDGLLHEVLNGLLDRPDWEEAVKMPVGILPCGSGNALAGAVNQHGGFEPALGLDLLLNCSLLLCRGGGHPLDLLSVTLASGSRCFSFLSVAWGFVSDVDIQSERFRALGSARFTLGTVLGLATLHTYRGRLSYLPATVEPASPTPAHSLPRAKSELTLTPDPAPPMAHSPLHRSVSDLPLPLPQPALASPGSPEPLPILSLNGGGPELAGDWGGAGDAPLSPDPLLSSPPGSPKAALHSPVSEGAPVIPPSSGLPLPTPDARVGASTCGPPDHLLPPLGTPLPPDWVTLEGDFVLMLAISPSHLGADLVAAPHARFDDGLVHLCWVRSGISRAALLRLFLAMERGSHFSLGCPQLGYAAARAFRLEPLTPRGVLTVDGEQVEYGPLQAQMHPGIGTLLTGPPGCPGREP

[2] = biological target: T2, Recombinant human SphK1 (Homo sapiens, UniProt Q9NYA1); settings: compound 1.0 μM
[3] = system: U937 cells; assay: U937 cell culture assay, S1P levels by LC-MS/MS; settings: 0.1 μM to 1.0 μM, 2.0 h incubation
[4] = biological target: T2, Recombinant human SphK1; assay: biochemical; settings: read-out: % SphK1 Inhibition

T2 sequence (Q9NYA1 whole entry): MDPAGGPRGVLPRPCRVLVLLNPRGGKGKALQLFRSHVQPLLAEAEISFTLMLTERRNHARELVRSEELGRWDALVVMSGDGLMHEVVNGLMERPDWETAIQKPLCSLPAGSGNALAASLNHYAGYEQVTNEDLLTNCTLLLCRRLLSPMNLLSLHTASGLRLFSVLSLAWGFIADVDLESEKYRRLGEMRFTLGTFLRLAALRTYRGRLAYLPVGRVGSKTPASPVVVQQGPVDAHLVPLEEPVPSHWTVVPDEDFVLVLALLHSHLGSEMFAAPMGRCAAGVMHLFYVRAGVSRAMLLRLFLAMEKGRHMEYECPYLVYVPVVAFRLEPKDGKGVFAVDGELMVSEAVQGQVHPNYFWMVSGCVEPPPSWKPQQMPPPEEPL

SphK2 inhibition, in words [1]	SphK1 inhibition, in words [2]	inhibition at 1 µM [4]	inhibition at 0.3 µM [1]	Compound	S1P levels in U937 cells [3]
poor SphK1 and 2 inhibition	poor SphK1 and 2 inhibition			CCCCCCCOc1ccc(CN2CCC[C@@H]2CO)cc1.Cl [12a, (R)-(1-(4-(heptyloxy)benzyl)pyrrolidin-2-yl)methanol]	
weak SphK inhibition	weak SphK inhibition			Cl.OC[C@H]1CCCN1Cc1ccc(OCc2ccc(C(F)(F)F)cc2)cc1 [12e, (R)-(1-(4-((4-(trifluoromethyl)benzyl)oxy)benzyl)pyrrolidin-2-yl)methanol]	
poor SphK1 and 2 inhibition	poor SphK1 and 2 inhibition			Cl.OC[C@H]1CCCN1Cc1ccc(Oc2ccccc2)cc1 [18a, (R)-(1-(4-phenoxybenzyl)pyrrolidin-2-yl)methanol]	
minimal enzyme inhibition	minimal enzyme inhibition			CC(C)(C)c1cccc(Oc2ccc(CN3CCC[C@@H]3CO)cc2)c1.Cl [18b, (R)-(1-(4-(3-(tert-butyl)phenoxy)benzyl)pyrrolidin-2-yl)methanol]	
minimal enzyme inhibition	minimal enzyme inhibition			Cl.OC[C@H]1CCCN1Cc1ccc(Oc2cccc(-c3ccccc3)c2)cc1 [18d, (R)-(1-(4-([1,1′-biphenyl]-3-yloxy)benzyl)pyrrolidin-2-yl)methanol]	
strong inhibitory activity				CCCCCCCCCCc1ccc(CN2CCC[C@@H]2CO)cc1.Cl [22b, (R)-(1-(4-decylbenzyl)pyrrolidin-2-yl)methanol]	
strong inhibitory activity				CCCCCCCCCCCCc1ccc(CN2CCC[C@@H]2CO)cc1.Cl [22d, (R)-(1-(4-dodecylbenzyl)pyrrolidin-2-yl)methanol]	decreased S1P levels; also recorded: concentration-dependent reduction of S1P levels
		4 ± 4%	3 ± 5%	Cc1ccc(CCc2ccc(CN3CCC[C@@H]3CO)cc2)cc1 [22f, (R)-(1-(4-(4-methylphenethyl)benzyl)pyrrolidin-2-yl)methanol]	
		8 ± 7%	2 ± 2%	COc1ccc(CCc2ccc(CN3CCC[C@@H]3CO)cc2)cc1 [22g, (R)-(1-(4-(4-methoxyphenethyl)benzyl)pyrrolidin-2-yl)methanol]	
		47 ± 6%	26 ± 6%	CCCCCCCCCCCc1ccc(CN2CCC[C@@H]2COC(C)=O)cc1 [22h, (R)-(1-(4-undecylbenzyl)pyrrolidin-2-yl)methyl acetate]	
		23 ± 3%	0%	Cc1cc(/C=C/c2ccc(C(C)(C)C)cc2)ccc1CN1CCC[C@@H]1CO [25a, (R,E)-(1-(4-(4-(tert-butyl)styryl)-2-methylbenzyl)pyrrolidin-2-yl)methanol]	
		45 ± 1%	13 ± 5%	OC[C@H]1CCCN1Cc1ccc(/C=C/c2cccc(C(F)(F)F)c2)cc1 [25b, (R,E)-(1-(4-(3-(trifluoromethyl)styryl)benzyl)pyrrolidin-2-yl) methanol]	
		29 ± 8%	3 ± 4%	CCCc1ccc(CCc2ccc(CN3CCC[C@@H]3CO)cc2)cc1 [29a, (R)-(1-(4-(4-propylphenethyl)benzyl)pyrrolidin-2-yl)methanol]	
		31 ± 4%		CCCCc1ccc(CCc2ccc(CN3CCC[C@@H]3CO)cc2)cc1 [29b, (R)-(1-(4-(4-butylphenethyl)benzyl)pyrrolidin-2-yl)methanol]	
		36 ± 3%	15 ± 5%	CCCCCc1ccc(CCc2ccc(CN3CCC[C@@H]3CO)cc2)cc1 [29c, (R)-(1-(4-(4-pentylphenethyl)benzyl)pyrrolidin-2-yl)methanol]	
